The source made the active and inactive calls.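 Rule for the calls: active = Compounds that kill half the cells at a concentration of 5 micromolar or below, from the fitted or estimated CC50; inactive = CC50 above 5 micromolar.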
Test system: Jurkat E6.1 viability, ATP luminescence, 48 h
Assay: Jurkat E6.1 cell cytotoxicity, CC50 determination, dose response, cytotoxicity control, ATP luminescence, 48 h, 60K MLSMR (AID 464)

SMILES: Cc1nn(-c2ccccc2)c(C)c1C(=O)OCC(=O)c1c(N)n(CC(C)C)c(=O)n(C)c1=O
- CC50: 9.53 µM (inactive)

SMILES: CCN1CCN(S(=O)(=O)c2cc(OCC(=O)NC3CCCCC3)c(C)cc2Cl)CC1
- CC50: 3.3 µM

SMILES: COc1ccc(CCNc2c(C)c(C)nc3ncnn23)cc1
- CC50: > 13 µM (inactive)

SMILES: CCCc1[nH]nc2c1C(c1ccc(Br)s1)C(C#N)=C(N)O2 (stereo unspecified)
- CC50: > 13 µM (inactive)

SMILES: CCn1c(C)nc2cc(-c3nc4n(n3)Cc3ccccc3-4)ccc21
- CC50: 2.57 µM

SMILES: COc1ccc(-c2cn3c(C)c(C(=O)Nc4cc(NC(C)=O)ccc4OC)sc3n2)cc1
- CC50: 2.23 µM

SMILES: c1ccc(/N=C2\N=C(Nc3ccccn3)c3ccccc32)nc1
- CC50: 1.12 µM

SMILES: C=CCOC(=O)c1[nH]c2c(c1C)C(=O)CC(c1cc(OC)c(OC)c(OC)c1)C2 (stereo unspecified)
- CC50: 24 µM (inactive)

SMILES: Cc1cccc(Cn2c(NCCO)nc3c2c(=O)n(C)c(=O)n3C)c1
- CC50: 2.32 µM

SMILES: Cc1c(C(=O)OCc2ccccc2)[nH]c2c1C(=O)CC(c1ccco1)C2 (stereo unspecified)
- CC50: 0.499 µM

SMILES: Cc1cc(NC(=O)CSc2nc3ccccc3c(=O)n2C2CCCC2)no1
- CC50: 0.469 µM

SMILES: Cc1cccc(N2CCN(c3cccc(C)c3)C2c2cccnc2)c1
- CC50: 15.8 µM (inactive)

SMILES: COc1ccc(S(=O)(=O)Nc2cc(Cl)ccc2OC)cc1
- CC50: 1.01 µM

SMILES: Cc1onc(-c2ccccc2Cl)c1C(=O)N1CCN(c2cccc(Cl)c2)CC1
- CC50: 0.832 µM

SMILES: O=C(NCc1cccs1)c1noc2c1CCCC2
- CC50: 7.48 µM (inactive)

SMILES: Cc1nn(Cc2ccccc2Cl)c(C)c1C(=O)Nc1nnc(C2CC2)s1
- CC50: > 40 µM (inactive)

SMILES: Oc1ccc(COCc2ccccc2)c2cccnc12
- CC50: 3.06 µM

SMILES: Cc1ccc(C(=O)Nc2ccc(Cl)cn2)cc1
- CC50: 4.48 µM

SMILES: CCOc1ccc(S(=O)(=O)n2cnc3cc(C)c(C)cc32)cc1
- CC50: 4.83 µM

SMILES: CCOc1ccccc1C1CC(=O)Nc2cc3c(cc21)OCCO3 (stereo unspecified)
- CC50: 0.625 µM

SMILES: CCCCCCOc1ccc(/C(N)=N/O)cc1
- CC50: 6.87 µM (inactive)

SMILES: O=S(=O)(CCSc1nc2ccccc2o1)c1nc2ccccc2s1
- CC50: 7.25 µM (inactive)

SMILES: COc1cc(C(=O)OCC(=O)c2cc(C)n(C)c2C)cc(OC)c1OC
- CC50: > 4.4 µM (inactive)

SMILES: N#CC1=C(N)Oc2cc(N)ccc2C1C1CCCCC1 (stereo unspecified)
- CC50: 2.49 µM

SMILES: Cn1c(C(=O)NCc2cccs2)cc2oc3ccccc3c21
- CC50: > 40 µM (inactive)

SMILES: COc1ccccc1C1C=C(c2ccccc2)Nc2nnnn21 (stereo unspecified)
- CC50: > 13 µM (inactive)

SMILES: CCCN1C(=O)c2ccccc2NC1c1ccc(OC)cc1O (stereo unspecified)
- CC50: > 40 µM (inactive)

SMILES: Cc1onc(-c2ccccc2)c1C(=O)Nc1cc(C(F)(F)F)ccc1N1CCOCC1
- CC50: 2.15 µM

SMILES: CCOC(=O)C1CCN(Cc2ccc(O)c3ncccc23)CC1
- CC50: 9.85 µM (inactive)

SMILES: CCOC(=O)C(C(C)=O)c1c(Br)c(O)c(O)c2c(C(=O)c3ccc(C)cc3)coc12 (stereo unspecified)
- CC50: 6.14 µM (inactive)

SMILES: Cc1cccc(Cn2c(NCC(C)O)nc3c2c(=O)n(C)c(=O)n3C)c1 (stereo unspecified)
- CC50: 8.24 µM (inactive)

SMILES: C=CCn1c(SCc2c(C)noc2C)nc2cc(C(=O)O)ccc2c1=O
- CC50: 3.4 µM

SMILES: Cc1cc(/C=N/n2cnnc2)c(C)n1-c1ccc(OCc2ccc(F)cc2)cc1
- CC50: > 13 µM (inactive)

SMILES: O=C(Cc1n[nH]c(=O)c2ccccc12)OCC(=O)c1ccc2c(c1)OCCO2
- CC50: 3.4 µM

SMILES: Cn1c(C(=O)NCCc2c[nH]c3ccccc23)cc2sccc21
- CC50: > 40 µM (inactive)

SMILES: CCOC(=O)c1ccc(NC(=O)c2ccc(CN3CCOCC3)cc2)cc1
- CC50: 5.13 µM (inactive)

SMILES: COc1cc(CSc2nnnn2-c2ccc(C)cc2)cc(OC)c1OC
- CC50: 2.38 µM

SMILES: COc1cccc2sc(Nc3nnc(-c4cccs4)o3)nc12
- CC50: 10.6 µM (inactive)

SMILES: Cc1ccc(C(=O)N2CCN(c3cccc(Cl)c3)CC2)cc1C
- CC50: 19.1 µM (inactive)

SMILES: C/C=C/COC(=O)c1[nH]c2c(c1C)C(=O)CC(c1ccco1)C2 (stereo unspecified)
- CC50: 0.196 µM

SMILES: CCCOc1ccccc1C1CC(=O)NC2=C1C(=O)CCC2 (stereo unspecified)
- CC50: 1.52 µM

SMILES: CCOc1ccccc1NC(=O)Cn1nnc(C(=O)NCc2ccco2)c1N
- CC50: 0.078 µM

SMILES: O=C(Nc1ccc(N2CCCC2)cc1)c1cccc(F)c1
- CC50: 8.17 µM (inactive)

SMILES: Clc1ccc(-n2nnnc2Sc2ncnc3sccc23)cc1
- CC50: > 13 µM (inactive)

SMILES: O=C(Nc1nc(-c2ccc3c(c2)OCO3)cs1)c1ccncc1
- CC50: > 40 µM (inactive)

SMILES: c1ccc(CNc2ncnc3c2cnn3-c2ccccc2)cc1
- CC50: 3.54 µM

SMILES: CC1(C)CC(=O)C2=C(C1)OC1=C(C(=O)CC(C)(C)C1)C2c1ccc(O)cc1O
- CC50: 2.39 µM

SMILES: Cc1cc(N2CCN(c3nc4ccccc4s3)CC2)n2ncnc2n1
- CC50: 8.41 µM (inactive)

SMILES: Cc1ccc2cc(CN(Cc3ccco3)C(=O)c3cccs3)c(=O)[nH]c2c1
- CC50: 2.6 µM

SMILES: O=C(NCc1cccs1)c1nc2c(nnn2Cc2ccccc2Cl)c(=O)[nH]1
- CC50: 14.8 µM (inactive)

SMILES: CCOc1ccc2nc(N3CCC(C(=O)N4CCN(c5ccccn5)CC4)CC3)sc2c1
- CC50: 23.7 µM (inactive)

SMILES: Cn1cc(/C=N/n2cnc3scc(-c4ccccc4)c3c2=O)c2ccccc21
- CC50: 1.1 µM

SMILES: CCOC(=O)Nc1ccc2c(c1)N(C(=O)OC)c1ccccc1CC2
- CC50: > 4.4 µM (inactive)

SMILES: Cc1noc(C)c1CSc1nc2ccccc2c(=O)n1-c1ccc(F)cc1F
- CC50: > 4.4 µM (inactive)

SMILES: COc1ccc(S(=O)(=O)Cc2ccc(C(=O)N3CCN(c4cccc(C)c4)C(C)C3)o2)cc1 (stereo unspecified)
- CC50: 1.6 µM

SMILES: Cc1cc2nnc(SCC(=O)NCc3ccco3)n2c2ccccc12
- CC50: 1.9 µM

SMILES: COc1cccc(C2=CC(c3cccc(OC)c3OC)n3nnnc3N2)c1 (stereo unspecified)
- CC50: 16.5 µM (inactive)

SMILES: O=C(Nc1nc2ccc(S(=O)(=O)N3CCCC3)cc2s1)C1CCCCC1
- CC50: 3.73 µM

SMILES: O=C(Nc1nc(-c2ccccn2)cs1)c1ccc(Cl)s1
- CC50: 2.12 µM

SMILES: CCCCN(CC)S(=O)(=O)c1ccc(C(=O)Nc2nnc(-c3cccs3)o2)cc1
- CC50: 13.9 µM (inactive)

SMILES: COc1ccc(OC)c(C2CC(=O)c3c([nH]c(C(=O)OC(C)C)c3C)C2)c1 (stereo unspecified)
- CC50: 1.08 µM

SMILES: Cc1cccc(-n2c(O)c(C=Nc3ccccc3N)c(=O)[nH]c2=O)c1
- CC50: > 13 µM (inactive)

SMILES: CCN(CC)c1ccc(-c2nn3c(-c4ccccc4OC)nnc3s2)cc1
- CC50: 0.115 µM

SMILES: COc1ccccc1-c1cc(C(F)(F)F)nc(S(=O)(=O)CCCC(=O)N2CCCCC2C)n1 (stereo unspecified)
- CC50: 4.22 µM

SMILES: O=C(CSc1n[nH]c(-c2ccccc2O)n1)N1CCCc2ccccc21
- CC50: 9.5 µM (inactive)

SMILES: O=C(CN1CCC(c2nc3ccccc3s2)CC1)NCc1cccs1
- CC50: 18 µM (inactive)

SMILES: COC(=O)c1ccc(Oc2cc(C)nc(SC)n2)cc1
- CC50: 1.68 µM

SMILES: O=C(c1cccc(F)c1)N1CCN(c2cccc(Cl)c2)CC1
- CC50: 4.55 µM

SMILES: CCOc1cc(C(=O)N2CCc3cc(OC)c(OC)cc3C2)ccc1OC(F)F
- CC50: 0.366 µM

SMILES: CCOC(=O)c1ccc(Oc2cc(C)nc(SC)n2)cc1
- CC50: 7.92 µM (inactive)

SMILES: O=C(Nc1ccc2c(c1)CCC2)C1CCN(c2c3c(nc4ncnn24)CCC3)CC1
- CC50: 4.5 µM

SMILES: CCCCN(CC)S(=O)(=O)c1ccc(C(=O)Nc2nnc(CSC)o2)cc1
- CC50: 37.6 µM (inactive)

SMILES: Cc1ccsc1C(=O)Nc1nnc(-c2ccco2)o1
- CC50: 24.2 µM (inactive)

SMILES: N#C/C(=C/c1ccc(N2CCCCCC2)o1)c1ccc(F)cc1
- CC50: > 13 µM (inactive)

SMILES: COc1cccc2sc(Nc3nc(-c4ccccn4)cs3)nc12
- CC50: 2.81 µM

SMILES: CCn1ncc(C2=NOC(C(=O)NCc3ccc(Cl)cc3)C2)c1C (stereo unspecified)
- CC50: 1.61 µM

SMILES: COc1ccc(C(=O)C(CN2CCOCC2)c2ccccc2)cc1F (stereo unspecified)
- CC50: 5.09 µM (inactive)

SMILES: O=C(Cn1cnc2c(cnn2-c2ccccc2)c1=O)NCc1ccccc1
- CC50: 9.12 µM (inactive)

SMILES: COCCNc1nc2c(c(=O)n(C)c(=O)n2C)n1Cc1cccc(C)c1
- CC50: 25.6 µM (inactive)

SMILES: COc1ccccc1C1CC(=O)Nc2cc3c(cc21)OCCO3 (stereo unspecified)
- CC50: 0.912 µM

SMILES: CCCOC(=O)c1[nH]c2c(c1C)C(=O)CC(c1cc(OC)c(OC)c(OC)c1)C2 (stereo unspecified)
- CC50: 23.8 µM (inactive)

SMILES: CN(CCCC(=O)Nc1ccncc1)S(=O)(=O)c1ccc(Cl)cc1
- CC50: 5.53 µM (inactive)

SMILES: CC1CC(C)CN(S(=O)(=O)c2ccc(C(=O)Nc3nnc(-c4cccs4)o3)cc2)C1 (stereo unspecified)
- CC50: 12.9 µM (inactive)

SMILES: COc1cccc(N2CCN(C(=O)c3[nH]c(C)c(C(C)=O)c3C)CC2)c1
- CC50: 1.74 µM

SMILES: Cc1noc(C)c1COC(=O)c1cccc(S(=O)(=O)N2CCCCCC2)c1
- CC50: 21.4 µM (inactive)

SMILES: COc1cccc(N2C(N)=NC(N)=NC2(C)C)c1
- CC50: 2.58 µM

SMILES: O=c1c2cc3ccccc3n2cnn1Cc1ccccc1F
- CC50: 16.4 µM (inactive)

SMILES: COC(=O)Nc1ccc(S(=O)(=O)N2c3ccccc3CCC2C)cc1 (stereo unspecified)
- CC50: 2.19 µM

SMILES: O=C(Nc1ccc2c(c1)nc1n2CCCCC1)c1cc(S(=O)(=O)N2CCOCC2)ccc1Cl
- CC50: 21.1 µM (inactive)

SMILES: CCn1ncc(C2=NOC(C(=O)NCc3ccccc3)C2)c1C (stereo unspecified)
- CC50: 1.09 µM

SMILES: Clc1ccc(Cn2ncc3c(NCc4ccco4)ncnc32)c(Cl)c1
- CC50: 3.8 µM

SMILES: CCOC(=O)c1[nH]c2c(c1C)C(=O)CC(c1ccc(F)cc1)C2 (stereo unspecified)
- CC50: 0.708 µM

SMILES: COc1ccc(-c2nnc(SCC(=O)Nc3ncc(C)s3)n2-c2ccccc2)cc1OC
- CC50: 9.26 µM (inactive)

SMILES: Cc1cccc(Cn2c(=O)n(CCCC(=O)NCc3ccco3)c(=O)c3ccccc32)c1
- CC50: 5.14 µM (inactive)

SMILES: Cc1ccccc1-n1ncc2c(SCC(=O)NCc3cccs3)ncnc21
- CC50: 5.39 µM (inactive)

SMILES: CN1CCN(Cc2cc(COCc3ccccc3)c3cccnc3c2O)CC1
- CC50: 10.5 µM (inactive)

SMILES: Nc1c(C(=O)Nc2ccc3c(c2)OCCO3)nnn1CCc1ccccc1
- CC50: 4.23 µM

SMILES: O=C(CCCc1nc(-c2ccc(Cl)cc2)no1)Nc1cccnc1
- CC50: 5.56 µM (inactive)

SMILES: Cc1nc(NC(C)c2ccccc2)c2oc3ccccc3c2n1 (stereo unspecified)
- CC50: 18.6 µM (inactive)

SMILES: CCCCOC(=O)c1[nH]c2c(c1C)C(=O)CC(c1cc(OC)c(OC)c(OC)c1)C2 (stereo unspecified)
- CC50: 18.7 µM (inactive)

SMILES: CC(=O)Nc1ccccc1OCC(=O)c1cc(C)n(Cc2cccs2)c1C
- CC50: 0.16 µM

SMILES: CCOc1ccc(-c2cc(C(=O)O)c3ccccc3n2)c(OCC)c1
- CC50: > 40 µM (inactive)

SMILES: CC1Cc2cc(-c3csc(NC(=O)Cc4cccs4)n3)ccc2N1S(C)(=O)=O (stereo unspecified)
- CC50: 5.23 µM (inactive)

SMILES: C=CCOC(=O)c1[nH]c2c(c1C)C(=O)CC(c1ccco1)C2 (stereo unspecified)
- CC50: 0.196 µM

SMILES: CCOC(=O)COc1cccc2c(=O)n(CC(=O)NCc3ccc4c(c3)OCO4)ccc12
- CC50: 5.51 µM (inactive)

SMILES: Cc1nc(NCc2ccco2)c2c3c(sc2n1)CCC3
- CC50: 15.6 µM (inactive)
